Test results taken from patent US12157730B2, “Heteroaryl derivative, method for producing same, and pharmaceutical composition comprising same as effective component” (VORONOI INC., priority 2019, dated 2024).

Target: T1, Ba/F3 cell EGFR Exon20 ins NPH (Homo sapiens, UniProt P00533, INS773NPH)
T1 construct: expressed in transfected cells; host or cells: Ba/F3
Assay: Ba/F3 cell proliferation suppression, EGFR Exon20 ins NPH
Format: cell-based
Details: GI50 class; Ba/F3 cell line with NPH inserted at Exon20 of EGFR; 72 hours
In short: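 After 72 h compound exposure (twelve 3-fold steps, 0.3 nM–50 um final), live cells were measured by CellTiter-Glo luminescence and growth expressed as % of control to derive GI50. Cells were seeded at 3000–5000 per well a day earlier; Ba/F3 medium contained IL-3; three repeats.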

Row | Compound | Ba/F3 (NPH) Activity
1 | C=CC(=O)Nc1cc(Nc2cc(N3OCC[C@@H]3c3ccc(F)c(F)c3F)ncn2)c(OC)cc1N1CCC(N2CCN(C3CCC3)CC2)CC1 [Example 187, N-(2-(4-(4-cyclobutylpiperazine-1-yl)piperidine-1-yl)-4-methoxy-5-((6-((R)-3-(2,3,4-trifluorophenyl)isoxazolidine-2-yl)pyrimidine-4-yl)amino)phenyl)acrylamide] | A (GI50 < 50 nM)
2 | C=CC(=O)Nc1cc(Nc2cc(N3OCC[C@@H]3c3ccc(F)c(Cl)c3)ncn2)c(OC)cc1N1CCC(N2CCO[C@H](C)C2)CC1 [compound 874, N-(5-((6-((R)-3-(3-chloro-4-fluorophenyl)isoxazolidine-2-yl)pyrimidine-4-yl)amino)-4-methoxy-2-(4-((R)-2-methylmorpholino)piperidine-1-yl)phenyl) acrylamide] | A (GI50 < 50 nM)
3 | C=CC(=O)Nc1cc(Nc2cc(N3OCC[C@@H]3c3cccc4ccccc34)ncn2)c(OC)cc1N1CCC(N(C)C)CC1 [compound 442, N-(2-(4-methoxy-5-((6-(dimethylamino)piperidine-1-yl)-4-((R)-3-(naphthalene-1-yl)isoxazolidine-2-yl)pyrimidine-4-yl)amino)phenyl) acrylamide] | A (GI50 < 50 nM)
4 | C=CC(=O)Nc1cc(Nc2cc(N3OCC[C@@H]3c3cc(F)cc(Cl)c3)ncn2)c(OC)cc1N1CCC(N(C)C)CC1 [compound 627, N-(5-((6-((R)-3-(3-chloro-5-fluorophenyl)isoxazolidine-2-yl)pyrimidine-4-yl)amino)-2-(4-(dimethylamino)piperidine-1-yl)-4-methoxyphenyl) acrylamide] | A (GI50 < 50 nM)
5 | C=CC(=O)Nc1cc(Nc2cc(N3OCC[C@@H]3Cc3ccc(C(F)(F)F)cc3)ncn2)c(OC)cc1N1CCN(C2CC2)CC1 [compound 1049, N-(2-(4-cyclopropylpiperazine-1-yl)-4-methoxy-5-((6-((S)-3-(4-(trifluoromethyl)benzyl)isoxazolidine-2-yl)pyrimidine-4-yl)amino)phenyl) acrylamide] | C (500 nM ≤ GI50 < 5000 nM)
6 | C=CC(=O)Nc1cc(Nc2cc(N3OCC[C@@H]3c3cccc(OC)c3)ncn2)c(OC)cc1N1CCC(N2C[C@@H](C)O[C@@H](C)C2)CC1 [compound 727, N-(2-(4-((2S,6R)-2,6-dimethylmorpholino)piperidine-1-yl)-4-methoxy-5-((6-((R)-3-(3-methoxyphenyl)isoxazolidine-2-yl)pyrimidine-4-yl)amino)phenyl)acrylamide] | A (GI50 < 50 nM)
7 | C=CC(=O)Nc1cc(Nc2cc(N3OCC[C@@H]3c3cc(F)cc(Cl)c3)ncn2)c(OC)cc1N1CCC(O)CC1 [compound 591, N-(5-((6-((R)-3-(3-chloro-5-fluorophenyl)isoxazolidine-2-yl)pyrimidine-4-yl)amino)-2-(4-hydroxypiperidine-1-yl)-4-methoxyphenyl) acrylamide] | A (GI50 < 50 nM)
8 | C=CC(=O)Nc1cc(Nc2cc(N3OCC[C@@H]3c3ccc4ccccc4c3)ncn2)c(OC)cc1N1CCO[C@H](C)C1 [compound 663, N-(4-methoxy-2-((R)-2-methylmorpholino)-5-((6-((R)-3-(naphthalene-2-yl)isoxazolidine-2-yl)pyrimidine-4-yl)amino)phenyl)acrylamide] | B (50 nM ≤ GI50 < 500 nM)
9 | C=CC(=O)Nc1cc(Nc2cc(N3OCC[C@@H]3c3ccc(Cl)c(Cl)c3)ncn2)c(OC)cc1N1CCC(N2CCN(C3CC3)CC2)CC1 [compound 932, N-(2-(4-(4-cyclopropylpiperazine-1-yl)piperidine-1-yl)-5-((6-((R)-3-(3,4-dichlorophenyl)isoxazolidine-2-yl)pyrimidine-4-yl)amino)-4-methoxyphenyl) acrylamide] | B (50 nM ≤ GI50 < 500 nM)
10 | C=CC(=O)Nc1cc(Nc2cc(N3OCC[C@@H]3c3cc(F)ccc3F)ncn2)c(OC)cc1N(C)CCN(C)C [compound 882, N-(5-((6-((R)-3-(2,5-difluorophenyl)isoxazolidine-2-yl)pyrimidine-4-yl)amino)-2-((2-(dimethylamino)ethyl)(methyl)amino)-4-methoxyphenyl) acrylamide] | A (GI50 < 50 nM)
11 | C=CC(=O)Nc1cc(Nc2cc(N3OCC[C@@H]3Cc3ccccc3)ncn2)c(OC)cc1N1C[C@@H]2C[C@H]1CN2CC [compound 950, N-(5-((6-((S)-3-benzylisoxazolidine-2-yl)pyrimidine-4-yl)amino)-2-((1S,4S)-5-ethyl-2,5-diazabicyclo [2.2.1]heptane-2-yl)-4-methoxyphenyl) acrylamide] | A (GI50 < 50 nM)
12 | C=CC(=O)Nc1cc(Nc2cc(N3OCC[C@@H]3c3ccc4ccccc4c3)ncn2)c(OC)cc1N1CCC(N2CCN(C3COC3)CC2)CC1 [Example 200, N-(4-methoxy-5-((6-((R)-3-(naphthalene-2-yl)isoxazolidine-2-yl)pyrimidine-4-yl)amino)-2-(4-(4-(oxetane-3-yl)piperazine-1-yl)piperidine-1-yl)phenyl)acrylamide] | B (50 nM ≤ GI50 < 500 nM)
13 | C=CC(=O)Nc1cc(Nc2cc(N3OCC[C@@H]3c3cccc(Cl)c3)ncn2)c(OC)cc1N1CCN(C2CC2)CC1 [compound 463, N-(5-((6-((R)-3-(3-chlorophenyl)isoxazolidine-2-yl)pyrimidine-4-yl)amino)-2-(4-cyclopropylpiperazine-1-yl)-4-methoxyphenyl) acrylamide] | B (50 nM ≤ GI50 < 500 nM)
14 | C=CC(=O)Nc1cc(Nc2cc(N3OCC[C@H]3c3c(F)cccc3F)ncn2)c(OC)cc1N1CCN(CC)CC1 [compound 895, N-(5-((6-((S)-3-(2,6-difluorophenyl)isoxazolidine-2-yl)pyrimidine-4-yl)amino)-2-(4-ethylpiperazine-1-yl)-4-methoxyphenyl) acrylamide] | C (500 nM ≤ GI50 < 5000 nM)
15 | C=CC(=O)Nc1cc(Nc2cc(N3OCC[C@@H]3c3cccc(Cl)c3Cl)ncn2)c(OC)cc1N1CCN(C)CC1 [compound 481, N-(5-((6-((R)-3-(2,3-dichlorophenyl)isoxazolidine-2-yl)pyrimidine-4-yl)amino)-4-methoxy-2-(4-methylpiperazine-1-yl)phenyl)acrylamide] | A (GI50 < 50 nM)
16 | C=CC(=O)Nc1cc(Nc2cc(N3OCC[C@@H]3c3cccc(Cl)c3)ncn2)c(OC)cc1N1CCC(N2C[C@@H]3C[C@H]2CO3)CC1 [compound 462, N-(2-(4-((1S,4S)-2-oxa-5-azabicyclo [2.2.1]heptane-5-yl)piperidine-1-yl)-5-((6-((R)-3-(3-chlorophenyl)isoxazolidine-2-yl)pyrimidine-4-yl)amino)-4-methoxyphenyl) acrylamide] | A (GI50 < 50 nM)
17 | C=CC(=O)Nc1cc(Nc2cc(N3OCC[C@@H]3c3ccc(F)c(Cl)c3)ncn2)c(OC)cc1N1CCC(N2CC[C@H](N(C)C)C2)CC1 [compound 764, N-(5-((6-((R)-3-(3-chloro-4-fluorophenyl)isoxazolidine-2-yl)pyrimidine-4-yl)amino)-2-(4-((S)-3-(dimethylamino)pyrolidine-1-yl)piperidine-1-yl)-4-methoxyphenyl) acrylamide] | A (GI50 < 50 nM)
18 | C=CC(=O)Nc1cc(Nc2cc(N3OCC[C@@H]3c3ccc(F)cc3)ncn2)c(OC)cc1N1CCC(N2C[C@@H]3C[C@H]2CO3)CC1 [compound 812, N-(2-(4-((1S,4S)-2-oxa-5-azabicyclo [2.2.1]heptane-5-yl)piperidine-1-yl)-5-((6-((R)-3-(4-fluorophenyl)isoxazolidine-2-yl)pyrimidine-4-yl)amino)-4-methoxyphenyl) acrylamide] | A (GI50 < 50 nM)
19 | C=CC(=O)Nc1cc(Nc2cc(N3OCC[C@@H]3c3cc(F)cc(Cl)c3)ncn2)c(OC)cc1N1CCC(N2CCOCC2)CC1 [compound 589, N-(5-((6-((R)-3-(3-chloro-5-fluorophenyl)isoxazolidine-2-yl)pyrimidine-4-yl)amino)-4-methoxy-2-(4-morpholinopiperidine-1-yl)phenyl)acrylamide] | A (GI50 < 50 nM)
20 | C=CC(=O)Nc1cc(Nc2cc(N3OCC[C@@H]3c3ccc(F)c(F)c3)ncn2)c(OC)cc1N1CCC(N2C[C@@H]3C[C@H]2CO3)CC1 [compound 497, N-(2-(4-((1S,4S)-2-oxa-5-azabicyclo[2.2.1]heptane-5-yl)piperidine-1-yl)-5-((6-((R)-3-(3,4-difluorophenyl)isoxazolidine-2-yl)pyrimidine-4-yl)amino)-4-methoxyphenyl) acrylamide] | B (50 nM ≤ GI50 < 500 nM)
21 | C=CC(=O)Nc1cc(Nc2cc(N3OCC[C@@H]3c3cccc(F)c3Cl)ncn2)c(OC)cc1N1CCC(N2CCN(C3CCC3)CC2)CC1 [Example 192, N-(5-((6-((R)-3-(2-chloro-3-fluorophenyl)isoxazolidine-2-yl)pyrimidine-4-yl)amino)-2-(4-(4-cyclobutylpiperazine-1-yl)piperidine-1-yl)-4-methoxyphenyl) acrylamide] | A (GI50 < 50 nM)
22 | C=CC(=O)Nc1cc(Nc2cc(N3OCC[C@@H]3Cc3ccccn3)ncn2)c(OC)cc1N1CCC(N2CCN(C3CC3)CC2)CC1 [compound 1059, N-(2-(4-(4-cyclopropylpiperazine-1-yl)piperidine-1-yl)-4-methoxy-5-((6-((S)-3-(pyridine-2-ylmethyl)isoxazolidine-2-yl)pyrimidine-4-yl)amino)phenyl)acrylamide] | A (GI50 < 50 nM)
23 | C=CC(=O)Nc1cc(Nc2cc(N3OCC[C@@H]3c3ccc(F)c(Cl)c3F)ncn2)c(OC)cc1N1CCC(N2CCN(C(C)=O)CC2)CC1 [compound 636, N-(2-(4-(4-acetylpiperazine-1-yl)piperidine-1-yl)-5-((6-((R)-3-(3-chloro-2,4-difluorophenyl)isoxazolidine-2-yl)pyrimidine-4-yl)amino)-4-methoxyphenyl) acrylamide] | A (GI50 < 50 nM)
